ChEMBL document CHEMBL1146488, “Antineoplastic agents. 511. Direct phosphorylation of phenpanstatin and pancratistatin” (J Nat Prod, 2004)
Values after ≈ are worked out from the molar mass of the structure shown.

Assays:
[1] = system: SF-268; assay: Cytotoxicity against human SF268 cells; format: functional
[2] = system: P388; assay: Cytotoxicity against mouse P388 cells; format: functional; details: read-out: ED50 (the source's name)
[3] = system: MCF7; assay: Cytotoxicity against human MCF7 cells; format: functional
[4] = system: KM-20L2; assay: Cytotoxicity against human KM20L2 cells; format: functional
[5] = system: DU-145; assay: Cytotoxicity against human DU145 cells; format: functional
[6] = system: BXPC-3; assay: Cytotoxicity against human BxPC3 cells; format: functional
[7] = system: NCI-H460; assay: Cytotoxicity against human NCI-H460 cells; format: functional
[8] = Solubility in water; format: physicochemical

Row | SMILES | GI50 [1] [µg/mL] | EC50 [2] [µg/mL] | GI50 [3] [µg/mL] | GI50 [4] [µg/mL] | GI50 [5] [µg/mL] | GI50 [6] [µg/mL] | GI50 [7] [µg/mL] | solubility [8] [µg/mL]
1 | O=C1N[C@H]2[C@@H]3OP(=O)([O-])O[C@@H]3[C@@H](O)[C@H](O)[C@@H]2c2cc3c(c(O)c21)OCO3.[Na+] | 2.9 | 3.33 | 2.9 | 3.7 | 2.3 | 3.3 | 3.8 | –
2 | C=C[C@H]1CN2CC[C@H]1C[C@H]2[C@H](O)c1ccnc2ccc(OC)cc12.O=C1N[C@H]2[C@H](OP(=O)(O)O)[C@H](O)[C@@H](O)[C@H](O)[C@@H]2c2cc3c(c(O)c21)OCO3 | 0.28 | 0.066 | 0.35 | 0.22 | 0.15 | 0.23 | 0.31 | –
3 | O=C1N[C@H]2[C@H](OP(=O)([O-])[O-])[C@H](O)[C@@H](O)[C@H](O)[C@@H]2c2cc3c(c(O)c21)OCO3.[Mg+2] | 0.36 | 0.02 | 0.44 | 0.36 | 0.22 | 0.4 | 0.42 | –
4 | O=C1N[C@H]2[C@H](OP(=O)([O-])[O-])[C@H](O)[C@@H](O)[C@H](O)[C@@H]2c2cc3c(c(O)c21)OCO3.[Zn+2] | 0.38 | 0.17 | 0.47 | 0.3 | 0.17 | 0.27 | 0.42 | –
5 | O=C1N[C@H]2[C@H](OP(=O)([O-])O)[C@H](O)[C@@H](O)[C@H](O)[C@@H]2c2cc3c(c(O)c21)OCO3.[K+] | 0.39 | 0.025 | 0.46 | 0.3 | 0.22 | 0.45 | 0.4 | –
6 | C1CNCCN1.O=C1N[C@H]2[C@H](OP(=O)(O)O)[C@H](O)[C@@H](O)[C@H](O)[C@@H]2c2cc3c(c(O)c21)OCO3 | 0.27 | 0.019 | 0.38 | 0.24 | 0.21 | 0.31 | 0.35 | –
7 | C1COCCN1.O=C1N[C@H]2[C@H](OP(=O)(O)O)[C@H](O)[C@@H](O)[C@H](O)[C@@H]2c2cc3c(c(O)c21)OCO3 | 0.38 | 0.27 | 0.4 | 0.37 | 0.18 | 0.29 | 0.46 | –
8 | O=C1N[C@H]2[C@H](OP(=O)(O)O)[C@H](O)[C@@H](O)[C@H](O)[C@@H]2c2cc3c(c(O)c21)OCO3.c1c[nH]cn1 | 0.21 | 0.063 | 0.33 | 0.13 | 0.13 | 0.25 | 0.25 | –
9 | O=C1N[C@H]2[C@H](O)[C@H](O)[C@@H](O)[C@H](O)[C@@H]2c2cc3c(c(OP(=O)([O-])[O-])c21)OCO3.[Na+].[Na+] | 0.079 | 0.24 | 0.2 | 0.17 | 0.026 | 0.2 | 0.19 | 20
10 | O=C1N[C@H]2[C@H](OP(=O)([O-])O)[C@H](O)[C@@H](O)[C@H](O)[C@@H]2c2cc3c(c(O)c21)OCO3.[Na+] | 0.12 | 0.018 | 0.18 | 0.24 | 0.94 | 0.18 | 0.38 | –
11 | O=C1N[C@H]2[C@H](OP(=O)([O-])O)[C@H](O)[C@@H](O)[C@H](O)[C@@H]2c2cc3c(c(O)c21)OCO3.[Li+] | 0.28 | 0.036 | 0.39 | 0.25 | 0.2 | 0.3 | 0.35 | –
12 | C=C[C@H]1CN2CC[C@H]1C[C@@H]2[C@@H](O)c1ccnc2ccc(OC)cc12.O=C1N[C@H]2[C@H](OP(=O)(O)O)[C@H](O)[C@@H](O)[C@H](O)[C@@H]2c2cc3c(c(O)c21)OCO3 | 0.27 | 0.21 | 0.38 | 0.23 | 0.2 | 0.34 | 0.36 | –
13 | O=C1N[C@H]2[C@H](OP(=O)([O-])[O-])[C@H](O)[C@@H](O)[C@H](O)[C@@H]2c2cc3c(c(O)c21)OCO3.[Ca+2] | 0.26 | 0.21 | 0.36 | 0.23 | 0.12 | 0.25 | 0.27 | –
14 | O=C(O[C@H]1[C@H](O)[C@H]2OP(=O)([O-])O[C@H]2[C@@H]2NC(=O)c3c(cc4c(c3O)OCO4)[C@H]21)c1ccccc1.[Na+] | 0.17 | 0.061 | 0.041 | 0.13 | 0.13 | 0.25 | 0.029 | –
15 | O=C1N[C@H]2[C@H](OP(=O)(O)O)[C@H](O)[C@@H](O)[C@H](O)[C@@H]2c2cc3c(c(O)c21)OCO3 | 0.35 (≈ 0.864 µM) | 0.047 (≈ 0.116 µM) | 0.43 (≈ 1.06 µM) | 0.33 (≈ 0.814 µM) | 0.2 (≈ 0.494 µM) | 0.36 (≈ 0.888 µM) | 0.42 (≈ 1.04 µM) | –
16 | O=C1N[C@@H]2C(=C[C@H](O)[C@@H](O)[C@H]2O)c2cc3c(c(O)c21)OCO3 [NARCICLASINE] | 0.0031 (≈ 0.0101 µM) | 0.013 (≈ 0.0423 µM) | 0.0032 (≈ 0.0104 µM) | 0.0032 (≈ 0.0104 µM) | 0.0032 (≈ 0.0104 µM) | 0.0035 (≈ 0.0114 µM) | 0.0084 (≈ 0.0273 µM) | –
17 | O=C1N[C@H]2[C@H](O)[C@H](O)[C@@H](O)[C@H](O)[C@@H]2c2cc3c(c(O)c21)OCO3 [PANCRATISTATIN] | 0.014 (≈ 0.043 µM) | 0.017 (≈ 0.0523 µM) | 0.023 (≈ 0.0707 µM) | 0.025 (≈ 0.0769 µM) | 0.015 (≈ 0.0461 µM) | 0.02 (≈ 0.0615 µM) | 0.032 (≈ 0.0984 µM) | 53 (≈ 163 µM)
18 | O=C(O[C@H]1[C@H](O)[C@@H](O)[C@@H](O)[C@@H]2NC(=O)c3c(cc4c(c3O)OCO4)[C@H]21)c1ccccc1 [PHENPANSTATIN] | 0.00055 (≈ 0.00128 µM) | 0.0016 (≈ 0.00373 µM) | 0.00031 (≈ 0.000722 µM) | 0.00037 (≈ 0.000862 µM) | 0.00021 (≈ 0.000489 µM) | 0.0019 (≈ 0.00442 µM) | 0.0001 (≈ 0.000233 µM) | –
19 | O=C1N[C@@H]2C(=C[C@H](O)[C@H]3OP(=O)([O-])O[C@H]32)c2cc3c(c(O)c21)OCO3.[Na+] [SODIUM NARCISTATIN] | 0.047 | 0.012 | 0.059 | 0.06 | 0.031 | 0.069 | 0.058 | –
